One may read the TGI as the concentration giving total growth inhibition. Read a high TGI as lower sensitivity of the cells.

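Where inhibition never reached the appropriate level, the endpoint shown equals the highest concentration tested. Otherwise, values were interpolated linearly from a five-concentration, 48-hour dose response in 96-well plates. TGI denotes the concentration required for complete inhibition of growth.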

Some test systems named below: M14 melanoma; HT29 colon; SK-MEL-5 melanoma; KM12 colon; HCC-2998 colon; HS 578T breast; OVCAR-3 ovarian; NCI-H522 lung; MDA-MB-231 breast; CCRF-CEM leukemia.
Test in all cases: DTP human tumour cell line panel, 48 h

With `CC(=O)OC1COC(N2c3ccccc3[C@@H]3CCc4c([nH]c5ccccc45)[C@@H]32)C(OC(C)=O)C1OC(C)=O` (mixture of isomers), the TGI in the experiment on M14 melanoma, in the experiment with HT29 colon, with SK-MEL-5 melanoma, in the experiment with KM12 colon, with HCC-2998 colon and in the experiment on HS 578T breast was above 100 µM throughout. The total growth inhibition concentration (TGI) with OVCAR-3 ovarian, with NCI-H522 lung, with MDA-MB-231 breast and in the experiment on CCRF-CEM leukemia was above 100 µM throughout.
In the case of `COC(=O)[C@@H]1[C@H]2CC[C@]3(C)[C@@H](OC(C)=O)CC[C@H]3[C@@H]2CC[C@H]1C1(C)SCCS1`, the total growth inhibition concentration (TGI) was 44 µM with M14 melanoma; 30 µM in the experiment on HT29 colon; 21.4 µM in the experiment with SK-MEL-5 melanoma; 74.2 µM in the experiment on KM12 colon; 86.2 µM with HCC-2998 colon; 74.4 µM in the experiment with HS 578T breast. In addition, the TGI worked out at 88.5 µM in the experiment with OVCAR-3 ovarian, 56.7 µM in the experiment with NCI-H522 lung, 62.1 µM in the experiment on MDA-MB-231 breast and 86.4 µM in the experiment with CCRF-CEM leukemia.

Values taken from PubChem BioAssay (NCI).
